Where two headings read alike, the source gives them in different places.
Columns and labels:
[1] = target: T1, 5HT2C receptors (Homo sapiens, UniProt P28335); experiment: Human 5-HT2C functional high throughput screening assay in CHO-K1 cells (calcium flux); assay type: cell-based; parameters: expressed in transfected cells; host or cells: CHO-K1 cells; details: for EC50: CHO-K1 cells, calcium flux; for Emax: CHO-K1, 5-HT2C, maximum functional response as percentage relative to the effect of serotonin
T1 sequence (P28335 33-458): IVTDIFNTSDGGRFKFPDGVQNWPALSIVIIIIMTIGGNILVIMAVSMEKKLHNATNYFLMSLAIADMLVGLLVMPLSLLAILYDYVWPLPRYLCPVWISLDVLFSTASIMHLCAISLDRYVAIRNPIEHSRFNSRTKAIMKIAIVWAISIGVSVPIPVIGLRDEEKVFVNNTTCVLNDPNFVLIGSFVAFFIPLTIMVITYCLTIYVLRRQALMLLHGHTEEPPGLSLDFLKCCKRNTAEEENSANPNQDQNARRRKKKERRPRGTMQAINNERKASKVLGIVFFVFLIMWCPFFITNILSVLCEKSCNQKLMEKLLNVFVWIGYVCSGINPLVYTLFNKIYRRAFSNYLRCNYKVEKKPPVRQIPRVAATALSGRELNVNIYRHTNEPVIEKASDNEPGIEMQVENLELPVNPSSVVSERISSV
Summary of the method: (§1)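 Calcium flux in CHO-K1 cells overexpressing each receptor, using Ca4 dye with probenecid and FLIPR detection. Top concentration was 10 μM, diluted 1:10 across 6 points, and efficacy was scaled to serotonin.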

[2] = target: T2, 5HT2B receptors (Homo sapiens, UniProt P41595); experiment: Human 5-HT2B functional high throughput screening assay in CHO-K1 cells (calcium flux); assay type: cell-based; details: for EC50: CHO-K1 cells, calcium flux
T2 construct: expressed in transfected cells; host or cells: CHO-K1 cells
T2 sequence (P41595 whole entry): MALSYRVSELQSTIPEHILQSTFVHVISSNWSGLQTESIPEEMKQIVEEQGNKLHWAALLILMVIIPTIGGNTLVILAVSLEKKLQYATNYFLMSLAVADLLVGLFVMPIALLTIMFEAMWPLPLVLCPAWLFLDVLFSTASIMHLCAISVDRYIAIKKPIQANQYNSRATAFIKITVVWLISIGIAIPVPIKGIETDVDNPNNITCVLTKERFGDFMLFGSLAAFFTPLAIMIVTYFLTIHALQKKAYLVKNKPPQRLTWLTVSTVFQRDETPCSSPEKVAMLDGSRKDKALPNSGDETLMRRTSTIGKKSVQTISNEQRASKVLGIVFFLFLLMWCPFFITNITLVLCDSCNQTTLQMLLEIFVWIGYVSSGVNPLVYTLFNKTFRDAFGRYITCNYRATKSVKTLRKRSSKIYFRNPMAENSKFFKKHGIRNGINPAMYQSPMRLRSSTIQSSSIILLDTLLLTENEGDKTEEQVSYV
Summary of the method: as §1

[3] = 5-HT2C agonist activity, read-out: EC50
[4] = 5-HT2B agonist activity, read-out: EC50
[5] = 5-HT2B, maximum functional response as percentage relative to the effect of serotonin

| SMILES | EC50 [1, 3] [nM] | Emax [1] [%] | EC50 [2, 4] [nM] | Emax [2, 5] | EC50 ([1]; EC50, 5-HT2C agonist activity) [nM] | Emax ([2]; CHO-K1) [%] | EC50 ([2]; EC50, 5-HT2B agonist activity) [nM] | Emax ([1]; read-out: Emax) [%] |
| --- | --- | --- | --- | --- | --- | --- | --- | --- |
| c1ccc(CN2C[C@H]3CCOc4ncccc4[C@@H]3C2)cc1 (relative stereo) [Example 262, Trans-2-benzyl-2,3,3a,4,5,10b-hexahydro-1H-pyrrolo[3′,4′:4,5]oxepino[2,3-b]pyridine] | 2000 | 90 | > 10000 | inactive |  |  |  |  |
| COc1ccc2c(c1)[C@H]1CNC[C@@H]1CCC2 (relative stereo) [Example 263, Trans-9-methoxy-1,2,3,3a,4,5,6,10b-octahydrobenzo[3,4]cyclohepta[1,2-c]pyrrole] |  | > 120 |  |  | 100 | 100 | 20 |  |
| c1cnc2c(c1)[C@@H]1CNC[C@H]1CCO2 (relative stereo) [Example 264, Trans-2,3,3a,4,5,10b-hexahydro-1H-pyrrolo[3′,4′:4,5]oxepino[2,3-b]pyridine] | 1000 | > 120 | 3000 |  |  | 20 |  |  |
| O=C1NC[C@@H]2CNC[C@H]2c2ccc(C3CCOCC3)cc21 (relative stereo) [Example 265, Trans-8-(tetrahydro-2H-pyran-4-yl)-1,2,3,3a,4,5-hexahydrobenzo[c]pyrrolo[3,4-e]azepin-6(10bH)-one] | 100 |  | > 10000 | inactive |  |  |  | > 120 |
| COc1ccc2c(c1)[C@H]1CNC[C@@H]1CC=C2 (relative stereo) [Example 266, Trans-9-methoxy-1,2,3,3a,4,10b-hexahydrobenzo[3,4]cyclohepta[1,2-c]pyrrole] |  | > 120 |  |  | 10 | 25 | 400 |  |
| CN1C[C@H]2CNC(=O)c3cc(C4CCOCC4)ccc3[C@@H]2C1 (relative stereo) [Example 267, Trans-2-methyl-8-(tetrahydro-2H-pyran-4-yl)-1,2,3,3a,4,5-hexahydrobenzo[c]pyrrolo[3,4-e]azepin-6(10bH)-one] | 1000 |  | > 10000 | inactive |  |  |  | 90 |
| CN1C[C@H]2CCOc3ncccc3[C@@H]2C1 (relative stereo) [Example 268, Trans-2-methyl-2,3,3a,4,5,10b-hexahydro-1H-pyrrolo[3′,4′:4,5]oxepino[2,3-b]pyridine] | 7000 | 70 | > 10000 | inactive |  |  |  |  |
| CN1C[C@@H]2CCCc3ccccc3[C@@H]2C1 (relative stereo) [Example 269, Cis-2-methyl-1,2,3,3a,4,5,6,10b-octahydrobenzo[3,4]cyclohepta[1,2-c]pyrrole] |  | > 120 |  |  | 100 | 50 | 800 |  |
| COc1cccc2c1[C@H]1CNC[C@@H]1CCO2 (relative stereo) [Example 272, Trans-10-methoxy-2,3,3a,4,5,10b-hexahydro-1H-[1]benzoxepino[4,5-c]pyrrole] |  | > 120 |  |  | 7 | 20 | 200 |  |
| COc1cccc2c1[C@H]1CN(C)C[C@@H]1CCO2 (relative stereo) [Example 273, Trans-10-methoxy-2-methyl-2,3,3a,4,5,10b-hexahydro-1H-[1]benzoxepino[4,5-c]pyrrole] |  | > 120 |  |  | 10 | 35 | 100 |  |
| O=C1NC[C@@H]2CNC[C@H]2c2ccc(-c3c(F)cccc3F)cc21 (relative stereo) [Example 276, Trans-8-(2,6-difluorophenyl)-1,2,3,3a,4,5-hexahydrobenzo[e]pyrrolo[3,4-c]azepin-6(10bH)-one] | 8 |  | > 10000 | inactive |  |  |  | > 120 |
| Cc1cc2c(cc1F)C(=O)NC[C@@H]1CNC[C@H]21 (relative stereo) [Example 279, Cis-8-fluoro-9-methyl-1,2,3,3a,4,5-hexahydrobenzo[c]pyrrolo[3,4-e]azepin-6(10bH)-one] |  | > 120 |  |  | 60 | 90 | 900 |  |

— patent US8846951B2 (AbbVie Inc., priority 2009, dated 2014)
